In US20100069345A1, “Lanthanide-porphyrin complexes as anti-tumor agents” (priority 2005, published 2010):

Test system: HeLa cells
Assay: FACS cell cycle analysis with PI staining
Assay type: cell-based, human
Settings: 2 μM
Method: Instrumentation. All absorption spectra were recorded on a Perkin-Elmer Lambda 900 and Perkin-Elmer Fusion α-FP. Positive ion FAB mass spectra were recorded on a Finnigan MAT95 mass spectrometer. ^1HNMR spectra were recorded on Brucker DPX-300 or DPX-400 NMR spectrometers. Flow cytometric analysis was performed with a Coulter EPICS flow cytometer (Coulter, Miami, Fla.) equipped with 480 long, 525 band and 625 long pass mirrors. Samples were excited by 15 mW air-cool argon convergent laser at 488 nm. Fluorescence signal were manipulated with Coulter Elite 4.0 software (Coulter) and were analyzed by Winlist 1.04 and Modfit 5011 software (verity Software House, Topsham, Me.).
Fluorescence-Activated Cell Sortings (FACS). Cells in different phases of the cell cycle can be differentiated by the DNA content, which can be distinguished by FACS after staining the cells with propidium iodide (PI). Resting cells are said to be in the G0 phase of the cell cycle. Once the cell is instructed to divide, it enters the active phase of the cell cycle, which is consisted of G1, S, G2 and M phase. Treatment of cancer cells with cytotoxic agents may induce cell cycle arrest at a particular phase of the cell cycle. Flow cytometry with PI staining was performed in HeLa cells treated with complex 1 (2 μM) for 0, 6 h, 12 h, 18 h, 24 h, 36 h and 48 h. […]

[Yb2(OEP)2](μ-OH)2 [Complex 1]
change in proportion of cells in G0-G1, G2-M and S phase (0-48 h, PI staining): no observable change
cells showing DNA fragmentation (48 h): more than 60%
